{"source": "patent US11331369B2", "about": "“Endoparasitic depsipeptides” (Zoetis Services LLC, priority 2017, dated 2022)", "data": [{"system": "microfilariae of Dirofilaria immitis", "assay": "Dirofilaria immitis, Microfilaria (DiMF) In vitro Assay", "format": "cell-based", "conditions": "72 h, read-out: DiMF Minimum Effective Dose (MED), approximately 72 hours incubation, microfilariae assessed for survival or paralysis", "units": {"minimal effective concentration": "µM"}, "values": [{"smiles": "CC(C)C[C@H]1C(=O)O[C@H](Cc2ccc(Cn3cc(C(F)(F)F)cn3)cc2)C(=O)N(C)[C@@H](CC(C)C)C(=O)O[C@H](C)C(=O)N(C)[C@@H](CC(C)C)C(=O)O[C@H](Cc2ccc(Cn3cc(C(F)(F)F)cn3)cc2)C(=O)N(C)[C@@H](CC(C)C)C(=O)O[C@H](C)C(=O)N1C", "note": "[Example 1b-34, (3S,6R,9S,12R,15S,18R,21S,24R)-3,9,15,21-tetraisobutyl-4,6,10,16,18,22-hexamethyl-12,24-bis(4-((4-(trifluoromethyl)-1H-pyrazol-1-yl)methyl)benzyl)-1,7,13,19-tetraoxa-4,10,16,22-tetraazacyclotetracosan-2,5,8,11,14,17,20,23-octaone]", "minimal effective concentration": "0.01 to 0.1"}, {"smiles": "CC(=O)c1cnn(Cc2ccc(C[C@H]3OC(=O)[C@H](CC(C)C)N(C)C(=O)[C@@H](C)OC(=O)[C@H](CC(C)C)N(C)C(=O)[C@@H](Cc4ccc(Cn5cc(C(C)=O)cn5)cc4)OC(=O)[C@H](CC(C)C)N(C)C(=O)[C@@H](C)OC(=O)[C@H](CC(C)C)N(C)C3=O)cc2)c1", "note": "[Example 1b-38, (3S,6R,9S,12R,15S,18R,21S,24R)-6,18-bis(4-((4-acetyl-1H-pyrazol-1-yl)methyl)benzyl)-3,9,15,21-tetraisobutyl-4,10,12,16,22,24-hexamethyl-1,7,13,19-tetraoxa-4,10,16,22-tetraazacyclotetracosan-2,5,8,11,14,17,20,23-octaone]", "minimal effective concentration": "0.01 to 0.1"}, {"smiles": "CCOC(=O)c1cnn(Cc2ccc(C[C@H]3OC(=O)[C@H](CC(C)C)N(C)C(=O)[C@@H](C)OC(=O)[C@H](CC(C)C)N(C)C(=O)[C@@H](Cc4ccc(Cn5cc(C(=O)OCC)cn5)cc4)OC(=O)[C@H](CC(C)C)N(C)C(=O)[C@@H](C)OC(=O)[C@H](CC(C)C)N(C)C3=O)cc2)c1", "note": "[Example 1b-39, diethyl 1,1′-(((((2R,5S,8R,11S,14R,17S,20R,23S)-5,11,17,23-tetraisobutyl-4,8,10,16,20,22-hexamethyl-3,6,9,12,15,18,21,24-octaoxo-1,7,13,19-tetraoxa-4,10,16,22-tetraazacyclotetracosane-2,14-diyl)bis(methylene))bis(4,1-phenylene))bis(methylene))bis(1H-pyrazole-4-carboxylate)]", "minimal effective concentration": "0.01 to 0.1"}, {"smiles": "Cc1nn(Cc2ccc(C[C@H]3OC(=O)[C@H](CC(C)C)N(C)C(=O)[C@@H](C)OC(=O)[C@H](CC(C)C)N(C)C(=O)[C@@H](Cc4ccc(Cn5cc(Br)c(C)n5)cc4)OC(=O)[C@H](CC(C)C)N(C)C(=O)[C@@H](C)OC(=O)[C@H](CC(C)C)N(C)C3=O)cc2)cc1Br", "note": "[Example 1b-43, (3S,6R,9S,12R,15S,18R,21S,24R)-6,18-bis(4-((4-bromo-3-methyl-1H-pyrazol-1-yl)methyl)benzyl)-3,9,15,21-tetraisobutyl-4,10,12,16,22,24-hexamethyl-1,7,13,19-tetraoxa-4,10,16,22-tetraazacyclotetracosan-2,5,8,11,14,17,20,23-octaone]", "minimal effective concentration": "0.01 to 0.1"}, {"smiles": "CNC(=O)c1cnn(Cc2ccc(C[C@H]3OC(=O)[C@H](CC(C)C)N(C)C(=O)[C@@H](C)OC(=O)[C@H](CC(C)C)N(C)C(=O)[C@@H](Cc4ccc(Cn5cc(C(=O)NC)cn5)cc4)OC(=O)[C@H](CC(C)C)N(C)C(=O)[C@@H](C)OC(=O)[C@H](CC(C)C)N(C)C3=O)cc2)c1", "note": "[Example 1b-53, 1,1′-(((((2R,5S,8R,11 S,14R,17S,20R,23S)-5,11,17,23-tetraisobutyl-4,8,10,16,20,22-hexamethyl-3,6,9,12,15,18,21,24-octaoxo-1,7,13,19-tetraoxa-4,10,16,22-tetraazacyclotetracosane-2,14-diyl)bis(methylene))bis(4,1-phenylene))bis(methylene))bis(N-methyl-1H-pyrazole-4-carboxamide)]", "minimal effective concentration": "0.01 to 0.1"}, {"smiles": "CC(C)C[C@H]1C(=O)O[C@H](Cc2ccc(Cn3cc(S(=O)(=O)N4CCCC4)cn3)cc2)C(=O)N(C)[C@@H](CC(C)C)C(=O)O[C@H](C)C(=O)N(C)[C@@H](CC(C)C)C(=O)O[C@H](Cc2ccc(Cn3cc(S(=O)(=O)N4CCCC4)cn3)cc2)C(=O)N(C)[C@@H](CC(C)C)C(=O)O[C@H](C)C(=O)N1C", "note": "[Example 1b-54, (3S,6R,9S,12R,15S,18R,21S,24R)-3,9,15,21-tetraisobutyl-4,6,10,16,18,22-hexamethyl-12,24-bis(4-((4-(pyrrolidin-1-ylsulfonyl)-1H-pyrazol-1-yl)methyl)benzyl)-1,7,13,19-tetraoxa-4,10,16,22-tetraazacyclotetracosan-2,5,8,11,14,17,20,23-octaone]", "minimal effective concentration": "0.01 to 0.1"}, {"smiles": "CC(C)C[C@H]1C(=O)O[C@H](Cc2ccc(Cn3cc(C(F)F)cn3)cc2)C(=O)N(C)[C@@H](CC(C)C)C(=O)O[C@H](C)C(=O)N(C)[C@@H](CC(C)C)C(=O)O[C@H](Cc2ccc(Cn3cc(C(F)F)cn3)cc2)C(=O)N(C)[C@@H](CC(C)C)C(=O)O[C@H](C)C(=O)N1C", "note": "[Example 1b-62, (3S,6R,9S,12R,15S,18R,21S,24R)-6,18-bis(4-((4-(difluoromethyl)-1H-pyrazol-1-yl)methyl)benzyl)-3,9,15,21-tetraisobutyl-4,10,12,16,22,24-hexamethyl-1,7,13,19-tetraoxa-4,10,16,22-tetraazacyclotetracosan-2,5,8,11,14,17,20,23-octaone]", "minimal effective concentration": "0.001 to 0.01"}, {"smiles": "CC(C)C[C@H]1C(=O)O[C@H](Cc2ccc(Cn3ccc(Br)n3)cc2)C(=O)N(C)[C@@H](CC(C)C)C(=O)O[C@H](C)C(=O)N(C)[C@@H](CC(C)C)C(=O)O[C@H](Cc2ccc(Cn3ccc(Br)n3)cc2)C(=O)N(C)[C@@H](CC(C)C)C(=O)O[C@H](C)C(=O)N1C", "note": "[Example 1b-63, (3S,6R,9S,12R,15S,18R,21S,24R)-6,18-bis(4-((3-bromo-1H-pyrazol-1-yl)methyl)benzyl)-3,9,15,21-tetraisobutyl-4,10,12,16,22,24-hexamethyl-1,7,13,19-tetraoxa-4,10,16,22-tetraazacyclotetracosan-2,5,8,11,14,17,20,23-octaone]", "minimal effective concentration": "0.01 to 0.1"}, {"smiles": "CC(C)C[C@H]1C(=O)O[C@H](Cc2ccc(Cn3ccc(I)n3)cc2)C(=O)N(C)[C@@H](CC(C)C)C(=O)O[C@H](C)C(=O)N(C)[C@@H](CC(C)C)C(=O)O[C@H](Cc2ccc(Cn3ccc(I)n3)cc2)C(=O)N(C)[C@@H](CC(C)C)C(=O)O[C@H](C)C(=O)N1C", "note": "[Example 1b-64, (3S,6R,9S,12R,15S,18R,21S,24R)-6,18-bis(4-((3-iodo-1H-pyrazol-1-yl)methyl)benzyl)-3,9,15,21-tetraisobutyl-4,10,12,16,22,24-hexamethyl-1,7,13,19-tetraoxa-4,10,16,22-tetraazacyclotetracosan-2,5,8,11,14,17,20,23-octaone]", "minimal effective concentration": "0.01 to 0.1"}, {"smiles": "CC(C)C[C@H]1C(=O)O[C@H](Cc2ccc(Cn3ccc(C4CC4)n3)cc2)C(=O)N(C)[C@@H](CC(C)C)C(=O)O[C@H](C)C(=O)N(C)[C@@H](CC(C)C)C(=O)O[C@H](Cc2ccc(Cn3ccc(C4CC4)n3)cc2)C(=O)N(C)[C@@H](CC(C)C)C(=O)O[C@H](C)C(=O)N1C", "note": "[Example 1b-67, (3S,6R,9S,12R,15S,18R,21S,24R)-6,18-bis(4-((3-cyclopropyl-1H-pyrazol-1-yl)methyl)benzyl)-3,9,15,21-tetraisobutyl-4,10,12,16,22,24-hexamethyl-1,7,13,19-tetraoxa-4,10,16,22-tetraazacyclotetracosan-2,5,8,11,14,17,20,23-octaone]", "minimal effective concentration": "0.01 to 0.1"}, {"smiles": "CC(C)C[C@H]1C(=O)O[C@H](Cc2ccc(Cn3cc(-c4ccccn4)cn3)cc2)C(=O)N(C)[C@@H](CC(C)C)C(=O)O[C@H](C)C(=O)N(C)[C@@H](CC(C)C)C(=O)O[C@H](Cc2ccc(Cn3cc(-c4ccccn4)cn3)cc2)C(=O)N(C)[C@@H](CC(C)C)C(=O)O[C@H](C)C(=O)N1C", "note": "[Example 1b-71, (3S,6R,9S,12R,15S,18R,21S,24R)-3,9,15,21-tetraisobutyl-4,6,10,16,18,22-hexamethyl-12,24-bis(4-((4-(pyridin-2-yl)-1H-pyrazol-1-yl)methyl)benzyl)-1,7,13,19-tetraoxa-4,10,16,22-tetraazacyclotetracosan-2,5,8,11,14,17,20,23-octaone]", "minimal effective concentration": "0.01 to 0.1"}, {"smiles": "CC(C)C[C@H]1C(=O)O[C@H](Cc2ccc(Cn3cc(CCO)cn3)cc2)C(=O)N(C)[C@@H](CC(C)C)C(=O)O[C@H](C)C(=O)N(C)[C@@H](CC(C)C)C(=O)O[C@H](Cc2ccc(Cn3cc(CCO)cn3)cc2)C(=O)N(C)[C@@H](CC(C)C)C(=O)O[C@H](C)C(=O)N1C", "note": "[Example 1b-75, (3S,6R,9S,12R,15S,18R,21S,24R)-6,18-bis(4-((4-(2-hydroxyethyl)-1H-pyrazol-1-yl)methyl)benzyl)-3,9,15,21-tetraisobutyl-4,10,12,16,22,24-hexamethyl-1,7,13,19-tetraoxa-4,10,16,22-tetraazacyclotetracosan-2,5,8,11,14,17,20,23-octaone]", "minimal effective concentration": "0.01 to 0.1"}, {"smiles": "CC(C)C[C@H]1C(=O)O[C@H](Cc2ccc(Cn3cc(-c4cnccn4)cn3)cc2)C(=O)N(C)[C@@H](CC(C)C)C(=O)O[C@H](C)C(=O)N(C)[C@@H](CC(C)C)C(=O)O[C@H](Cc2ccc(Cn3cc(-c4cnccn4)cn3)cc2)C(=O)N(C)[C@@H](CC(C)C)C(=O)O[C@H](C)C(=O)N1C", "note": "[Example 1b-87, (3S,6R,9S,12R,15S,18R,21S,24R)-3,9,15,21-tetraisobutyl-4,6,10,16,18,22-hexamethyl-12,24-bis(4-((4-(pyrazin-2-yl)-1H-pyrazol-1-yl)methyl)benzyl)-1,7,13,19-tetraoxa-4,10,16,22-tetraazacyclotetracosan-2,5,8,11,14,17,20,23-octaone]", "minimal effective concentration": "0.01 to 0.1"}, {"smiles": "CC(C)C[C@H]1C(=O)O[C@H](Cc2ccc(Cn3ccc(CO)n3)cc2)C(=O)N(C)[C@@H](CC(C)C)C(=O)O[C@H](C)C(=O)N(C)[C@@H](CC(C)C)C(=O)O[C@H](Cc2ccc(Cn3ccc(CO)n3)cc2)C(=O)N(C)[C@@H](CC(C)C)C(=O)O[C@H](C)C(=O)N1C", "note": "[Example 1b-97, (3S,6R,9S,12R,15S,18R,21S,24R)-6,18-bis(4-((3-(hydroxymethyl)-1H-pyrazol-1-yl)methyl)benzyl)-3,9,15,21-tetraisobutyl-4,10,12,16,22,24-hexamethyl-1,7,13,19-tetraoxa-4,10,16,22-tetraazacyclotetracosan-2,5,8,11,14,17,20,23-octaone]", "minimal effective concentration": "0.01 to 0.1"}]}]}
